In patent US20250177383A1, “DI-CYCLOPROPYL BASED IL-17A MODULATORS AND USES THEREOF” (DICE ALPHA, INC., priority 2022, published 2025):
Like-named read-outs stand apart in the source and are kept apart here.

Biological target: T1, IL-17A/A (Homo sapiens, UniProt Q16552)
T1 sequence (Q16552 24-155): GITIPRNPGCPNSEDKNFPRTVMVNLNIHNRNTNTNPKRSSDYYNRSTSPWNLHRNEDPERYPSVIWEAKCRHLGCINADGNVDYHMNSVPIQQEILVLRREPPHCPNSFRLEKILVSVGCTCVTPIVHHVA
Assay: IL-17A/A HEK-Blue Cell Assay
Format: cell-based
Details: IL-17A/A stimulation, 20 hours, SEAP readout
Experimental: The HEK-Blue IL-17 reporter cell line (Fisher #NC1408637) was used for cell-based IL-17A/A inhibition assays. Cells were grown and prepared for assays according to the manufacturer's instructions. This cell line consists of HEK 293 cells that were designed to expressed IL-17R^A, IL-17R^C, and the ActI adapter molecule, the combination of which, when stimulated by IL-17A/A activates a NFκB promoter and drives expression of a recombinant Secreted Alkaline Phosphatase (SEAP) protein. Media from the cells is then added to a development reagent (Quanti-Blue Substrate, Fisher #NC9711613), and read at A630.
Compounds were titrated in DMSO, with a top final compound concentration of 10 uM and added to the cells immediately before adding IL-17A/A (Genscript #Z03228). The cells, compound, and IL-17A/A were then incubated for 20 hours before media was removed for SEAP analysis. The resulting inhibition curve was then analyzed using a Dotmatics screening protocol, and IC50 values were determined using a 4-parameter nonlinear fit. DMSO was added to a universal final concentration of 0.1% to optimize background. IL-17A/A inhibition data is provided in Table 1 for selected compounds.

[1] = HEK-Blue IL-17 reporter cells, read-out: IL17 AA HEK-5 pIC50 (converted)

Row | IC50 [1] [nM] | Structure (SMILES) | IC50 (IL17 AA HEK-5 pIC50, HEK-Blue IL-17 reporter cells) [nM]
1 | 10 to 100 | CCC(=O)N[C@@H](C(=O)N1CCN(C)C(COC)C1)[C@@H](C)c1ccc(NC(=O)[C@@H](NC(=O)c2ccnn2CC)C(C2CC2)C2CC2)c(F)c1 (single isomer, unassigned) [Compound 202] | 
2 | 10 to 100 | CCC(=O)N[C@@H](C(=O)N1CCN(C)CC1)[C@@H](C)c1ccc(NC(=O)[C@@H](NC(=O)c2ccnn2C2CC2(F)F)C(C2CC2)C2CC2)c(F)c1 (single isomer, unassigned) [Compound 233] | 
3 | < 10 | CCC(=O)N[C@@H](C(=O)N1CCN(C)CC1)[C@@H](C)c1ccc(NC(=O)[C@@H](NC(=O)c2ccnn2C2CC2(F)F)C(C2CC2)C2CC2)c(F)c1 (single isomer, unassigned) [Compound 234] | 
4 | 10 to 100 | CCC(=O)N[C@@H](C(=O)N1CCN(C)CC1)[C@@H](C)c1ccc(NC(=O)[C@H](NC(=O)c2ccnn2CC)C(C2CC2)C2CC2)c(F)c1 [Compound 201] | 
5 | < 10 | CCC(=O)N[C@@H](C(=O)N1CCN(C)CC1)[C@@H](C)c1ccc(NC(=O)[C@@H](NC(=O)c2nonc2CC)C(C2CC2)C2CC2)c(F)c1 [Compound 204] | 
6 | < 10 | CCC(=O)N[C@@H](C(=O)N1C[C@@H](C)N(C)[C@@H](C)C1)[C@@H](C)c1ccc(NC(=O)[C@@H](NC(=O)c2nonc2CC)C(C2CC2)C2CC2)c(F)c1 [Compound 205] | 
7 | < 10 | CCOC(=O)N(C)[C@@H](C)C(=O)N[C@@H](C(=O)N1CCN(C)CC1)[C@@H](C)c1ccc(NC(=O)[C@@H](NC(=O)c2ccnn2CC)C(C2CC2)C2CC2)c(F)c1 [Compound 211] | 
8 | < 10 | CCc1nonc1C(=O)N[C@H](C(=O)Nc1ccc([C@H](C)[C@@H](NC(=O)[C@H](C)OC)C(=O)N2CCN(C)CC2)cc1F)C(C1CC1)C1CC1 [Compound 220] | 
9 | < 10 | CCc1nonc1C(=O)N[C@H](C(=O)Nc1ccc([C@H](C)[C@@H](NC(=O)N(C)C2CC2)C(=O)N2CCN(C)CC2)cc1F)C(C1CC1)C1CC1 [Compound 224] | 
10 | < 10 | CCn1nccc1C(=O)N[C@H](C(=O)Nc1ccc([C@H](C)[C@@H](NC(=O)CC2CC2)C(=O)N2CCN(C)CC2)cc1F)C(C1CC1)C1CC1 [Compound 227] | 
11 | 10 to 100 | CCC(=O)N[C@@H](C(=O)N1CCN(C)CC1)[C@@H](C)c1ccc(NC(=O)[C@@H](NC(=O)c2ccnn2C2CC2)C(C2CC2)C2CC2)c(F)c1 [Compound 230] | 
12 | 10 to 100 | CCC(=O)N[C@@H](C(=O)N1CCN(C)CC1)[C@@H](C)c1ccc(NC(=O)[C@@H](NC(=O)c2ccnn2CC(F)F)C(C2CC2)C2CC2)c(F)c1 [Compound 231] | 
13 | 10 to 100 | CCC(=O)N[C@@H](C(=O)N1C[C@@H]2C[C@H]1CN2C)[C@@H](C)c1ccc(NC(=O)[C@@H](NC(=O)c2ccnn2CC)C(C2CC2)C2CC2)c(F)c1 [Compound 235] | 
14 | 100 to 10000 | CCC(=O)N[C@@H](C(=O)N1CCN(C)[C@H](C)C1)[C@@H](C)c1ccc(NC(=O)[C@@H](NC(=O)c2ccnn2CCO)C(C2CC2)C2CC2)c(F)c1 [Compound 244] | 
15 | < 10 | CCC(=O)N[C@@H](C(=O)N1CCC(C)(O)CC1)[C@@H](C)c1ccc(NC(=O)[C@@H](NC(=O)c2ccnn2CCF)C(C2CC2)C2CC2)c(F)c1 [Compound 250] | 
16 | 10 to 100 | CCC(=O)N[C@@H](C(=O)N1CCC(C)(O)CC1)[C@@H](C)c1ccc(NC(=O)[C@@H](NC(=O)c2ccnn2CCN2CCOCC2)C(C2CC2)C2CC2)c(F)c1 [Compound 252] | 
17 | 100 to 10000 | CCC(=O)N[C@@H](C(=O)N1CCOCC1)[C@@H](C)c1ccc(NC(=O)[C@@H](NC(=O)c2ccnn2CCN2CCOCC2)C(C2CC2)C2CC2)c(F)c1 [Compound 253] | 
18 | < 10 | CCn1nccc1C(=O)N[C@H](C(=O)Nc1ccc([C@H](C)[C@@H](NC(=O)[C@H](C)OC)C(=O)N2C[C@H]3CC[C@@H](C2)N3C)cc1F)C(C1CC1)C1CC1 [Compound 254] | 
19 | < 10 | CCn1nccc1C(=O)N[C@H](C(=O)Nc1ccc([C@H](C)[C@@H](NC(=O)[C@H](C)OC)C(=O)N2CC[C@H](N(C)C)C2)cc1F)C(C1CC1)C1CC1 [Compound 255] | 
20 | 10 to 100 | CCn1nccc1C(=O)N[C@H](C(=O)Nc1ccc([C@H](C)[C@@H](NC(=O)[C@H](C)OC)C(=O)N2C[C@H]3C[C@@H]2CN3C)cc1F)C(C1CC1)C1CC1 [Compound 256] | 
21 | < 10 | CO[C@@H](C)C(=O)N[C@@H](C(=O)N1CCN(C)CC1)[C@@H](C)c1ccc(NC(=O)[C@@H](NC(=O)c2ccnn2C(C)C)C(C2CC2)C2CC2)c(F)c1 [Compound 259] | 
22 | < 10 | CO[C@@H](C)C(=O)N[C@@H](C(=O)N1CCN(C)[C@H](C)C1)[C@@H](C)c1ccc(NC(=O)[C@@H](NC(=O)c2ccnn2C(C)C)C(C2CC2)C2CC2)c(F)c1 [Compound 260] | 

More lines, now with the values behind:

Row | Structure (SMILES) | IC50 [1] [nM] | IC50 (IL17 AA HEK-5 pIC50, HEK-Blue IL-17 reporter cells) [nM]
23 | CCc1nonc1C(=O)N[C@H](C(=O)Nc1ccc([C@H](C)[C@@H](NC(=O)COC)C(=O)N2CCN(C)CC2)cc1F)C(C1CC1)C1CC1 [Compound 206] | < 10 | 
24 | CCC(=O)N[C@@H](C(=O)N1CCN(C)C[C@@H]1C)[C@@H](C)c1ccc(NC(=O)[C@@H](NC(=O)c2ccnn2CC)C(C2CC2)C2CC2)c(F)c1 [Compound 208] | < 10 | 
25 | CCOC(=O)N(C)[C@@H](C)C(=O)N[C@@H](C(=O)N1CCN(C)[C@H](C)C1)[C@@H](C)c1ccc(NC(=O)[C@@H](NC(=O)c2ccnn2CC)C(C2CC2)C2CC2)c(F)c1 [Compound 210] | < 10 | 
26 | CCn1nccc1C(=O)N[C@H](C(=O)Nc1ccc([C@H](C)[C@@H](NC(=O)CCF)C(=O)N2CCN(C)CC2)cc1F)C(C1CC1)C1CC1 [Compound 218] | 10 to 100 | 
27 | CCn1nccc1C(=O)N[C@H](C(=O)Nc1ccc([C@H](C)[C@@H](NC(=O)CC2CC2)C(=O)N2CCN(C)[C@H](C)C2)cc1F)C(C1CC1)C1CC1 [Compound 226] | < 10 | 
28 | CCn1nccc1C(=O)N[C@H](C(=O)Nc1ccc([C@H](C)[C@@H](NC(=O)CF)C(=O)N2CCN(C)[C@H](C)C2)cc1F)C(C1CC1)C1CC1 [Compound 228] |  | 10 to 100
29 | CCC(=O)N[C@@H](C(=O)N1CCN(C)[C@H](C)C1)[C@@H](C)c1ccc(NC(=O)[C@@H](NC(=O)c2ccnn2C2CC2)C(C2CC2)C2CC2)c(F)c1 [Compound 229] | < 10 | 
30 | CCC(=O)N[C@@H](C(=O)N1C[C@H]2C[C@@H]1CN2C)[C@@H](C)c1ccc(NC(=O)[C@@H](NC(=O)c2ccnn2CC)C(C2CC2)C2CC2)c(F)c1 [Compound 236] | 10 to 100 | 
31 | CCC(=O)N[C@@H](C(=O)N1C[C@H]2CN(C)C[C@H]2C1)[C@@H](C)c1ccc(NC(=O)[C@@H](NC(=O)c2ccnn2CC)C(C2CC2)C2CC2)c(F)c1 [Compound 237] | 100 to 10000 | 
32 | CCC(=O)N[C@@H](C(=O)N1CC2(CN(C)C2)C1)[C@@H](C)c1ccc(NC(=O)[C@@H](NC(=O)c2ccnn2CC)C(C2CC2)C2CC2)c(F)c1 [Compound 238] | 100 to 10000 | 
33 | CCC(=O)N[C@@H](C(=O)N1C[C@H]2CC[C@@H](C1)N2C)[C@@H](C)c1ccc(NC(=O)[C@@H](NC(=O)c2ccnn2CC)C(C2CC2)C2CC2)c(F)c1 [Compound 239] | < 10 | 
34 | CCC(=O)N[C@@H](C(=O)N1CC[C@H](N(C)C)C1)[C@@H](C)c1ccc(NC(=O)[C@@H](NC(=O)c2ccnn2CC)C(C2CC2)C2CC2)c(F)c1 [Compound 240] | 10 to 100 | 
35 | CCC(=O)N[C@@H](C(=O)N1C[C@H]2C[C@@H](C1)N2C)[C@@H](C)c1ccc(NC(=O)[C@@H](NC(=O)c2ccnn2CC)C(C2CC2)C2CC2)c(F)c1 [Compound 241] | 10 to 100 | 
36 | CCC(=O)N[C@@H](C(=O)N1CC[C@@H](N(C)C)C1)[C@@H](C)c1ccc(NC(=O)[C@@H](NC(=O)c2ccnn2CC)C(C2CC2)C2CC2)c(F)c1 [Compound 242] | 10 to 100 | 
37 | CCC(=O)N[C@@H](C(=O)N1CCN(C)CC1)[C@@H](C)c1ccc(NC(=O)[C@@H](NC(=O)c2ccnn2CCO)C(C2CC2)C2CC2)c(F)c1 [Compound 243] | 100 to 10000 | 
38 | CCC(=O)N[C@@H](C(=O)N1CCN(C)CC1)[C@@H](C)c1ccc(NC(=O)[C@@H](NC(=O)c2ccnn2C)C(C2CC2)C2CC2)c(F)c1 [Compound 247] | 10 to 100 | 
39 | CCC(=O)N[C@@H](C(=O)N1CCN(C)[C@H](C)C1)[C@@H](C)c1ccc(NC(=O)[C@@H](NC(=O)c2ccnn2CC(F)(F)F)C(C2CC2)C2CC2)c(F)c1 [Compound 248] | 10 to 100 | 
40 | CCC(=O)N[C@@H](C(=O)N1CCN(C)CC1)[C@@H](C)c1ccc(NC(=O)[C@@H](NC(=O)c2ccnn2CC(F)(F)F)C(C2CC2)C2CC2)c(F)c1 [Compound 249] | 10 to 100 | 
41 | CCC(=O)N[C@@H](C(=O)N1CCOCC1)[C@@H](C)c1ccc(NC(=O)[C@@H](NC(=O)c2ccnn2CCF)C(C2CC2)C2CC2)c(F)c1 [Compound 251] | 10 to 100 | 
42 | CCC(=O)N[C@@H](C(=O)N1CCN(C)[C@H](C)C1)[C@@H](C)c1ccc(NC(=O)[C@@H](NC(=O)c2ccnn2C(C)C)C(C2CC2)C2CC2)c(F)c1 [Compound 258] | < 10 | 
43 | CO[C@@H](C)C(=O)N[C@@H](C(=O)N1C[C@H]2CC[C@@H](C1)N2C)[C@@H](C)c1ccc(NC(=O)[C@@H](NC(=O)c2ccnn2C(C)C)C(C2CC2)C2CC2)c(F)c1 [Compound 261] | < 10 | 
44 | CO[C@@H](C)C(=O)N[C@@H](C(=O)N1CC[C@H](N(C)C)C1)[C@@H](C)c1ccc(NC(=O)[C@@H](NC(=O)c2ccnn2C(C)C)C(C2CC2)C2CC2)c(F)c1 [Compound 262] | < 10 | 
